The source made the active and inactive calls. The calls are words filed in the database; no cut-off is given here.
Legend:
OCI-Ly10 [1] = experiment: Synergistic antiproliferative activity against human OCILY10 cells harboring MYD88 L265P assessed as inhibition of cell growth at 200 nM incubated for 72 hrs in presence of BTK inhibitor, ibrutinib at 25 nM by CCK-8 assay (reference value: 26.07 %); type: functional
[2] = target: Fibroblast growth factor receptor 2 (Homo sapiens) (UniProt P21802); experiment: Inhibition of FGFR2 (unknown origin) at 100 nM incubated for 1 hr in presence of ATP by ELISA analysis
Fibroblast growth factor receptor 2 (Homo sapiens), sequence (P21802 22-821 limits assumed): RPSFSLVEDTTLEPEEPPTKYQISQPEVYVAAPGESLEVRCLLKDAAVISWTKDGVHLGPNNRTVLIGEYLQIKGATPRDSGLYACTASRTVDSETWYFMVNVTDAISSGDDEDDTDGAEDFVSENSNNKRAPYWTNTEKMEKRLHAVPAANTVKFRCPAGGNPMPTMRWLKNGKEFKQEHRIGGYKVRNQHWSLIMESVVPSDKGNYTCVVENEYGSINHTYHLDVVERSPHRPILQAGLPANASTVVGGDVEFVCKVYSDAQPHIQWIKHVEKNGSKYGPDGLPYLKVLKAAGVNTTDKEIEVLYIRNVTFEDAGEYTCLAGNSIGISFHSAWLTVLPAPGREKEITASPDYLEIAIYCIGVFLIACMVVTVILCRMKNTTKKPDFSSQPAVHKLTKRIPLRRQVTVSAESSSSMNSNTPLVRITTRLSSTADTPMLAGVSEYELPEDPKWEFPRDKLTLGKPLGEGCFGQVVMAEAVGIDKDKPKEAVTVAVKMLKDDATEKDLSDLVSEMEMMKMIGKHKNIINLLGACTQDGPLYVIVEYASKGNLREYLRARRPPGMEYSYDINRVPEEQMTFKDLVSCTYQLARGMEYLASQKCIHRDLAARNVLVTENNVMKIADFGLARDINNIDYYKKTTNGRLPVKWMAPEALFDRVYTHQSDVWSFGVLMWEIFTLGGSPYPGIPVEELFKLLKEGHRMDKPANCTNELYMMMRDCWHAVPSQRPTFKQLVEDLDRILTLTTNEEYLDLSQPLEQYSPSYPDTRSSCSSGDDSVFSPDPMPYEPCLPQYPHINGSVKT

[3] = target: Focal adhesion kinase 1 (Homo sapiens) (UniProt Q05397); experiment: Inhibition of FAK (unknown origin) at 100 nM incubated for 1 hr in presence of ATP by ELISA analysis
Focal adhesion kinase 1 (Homo sapiens), sequence (Q05397 2-1052 limits assumed): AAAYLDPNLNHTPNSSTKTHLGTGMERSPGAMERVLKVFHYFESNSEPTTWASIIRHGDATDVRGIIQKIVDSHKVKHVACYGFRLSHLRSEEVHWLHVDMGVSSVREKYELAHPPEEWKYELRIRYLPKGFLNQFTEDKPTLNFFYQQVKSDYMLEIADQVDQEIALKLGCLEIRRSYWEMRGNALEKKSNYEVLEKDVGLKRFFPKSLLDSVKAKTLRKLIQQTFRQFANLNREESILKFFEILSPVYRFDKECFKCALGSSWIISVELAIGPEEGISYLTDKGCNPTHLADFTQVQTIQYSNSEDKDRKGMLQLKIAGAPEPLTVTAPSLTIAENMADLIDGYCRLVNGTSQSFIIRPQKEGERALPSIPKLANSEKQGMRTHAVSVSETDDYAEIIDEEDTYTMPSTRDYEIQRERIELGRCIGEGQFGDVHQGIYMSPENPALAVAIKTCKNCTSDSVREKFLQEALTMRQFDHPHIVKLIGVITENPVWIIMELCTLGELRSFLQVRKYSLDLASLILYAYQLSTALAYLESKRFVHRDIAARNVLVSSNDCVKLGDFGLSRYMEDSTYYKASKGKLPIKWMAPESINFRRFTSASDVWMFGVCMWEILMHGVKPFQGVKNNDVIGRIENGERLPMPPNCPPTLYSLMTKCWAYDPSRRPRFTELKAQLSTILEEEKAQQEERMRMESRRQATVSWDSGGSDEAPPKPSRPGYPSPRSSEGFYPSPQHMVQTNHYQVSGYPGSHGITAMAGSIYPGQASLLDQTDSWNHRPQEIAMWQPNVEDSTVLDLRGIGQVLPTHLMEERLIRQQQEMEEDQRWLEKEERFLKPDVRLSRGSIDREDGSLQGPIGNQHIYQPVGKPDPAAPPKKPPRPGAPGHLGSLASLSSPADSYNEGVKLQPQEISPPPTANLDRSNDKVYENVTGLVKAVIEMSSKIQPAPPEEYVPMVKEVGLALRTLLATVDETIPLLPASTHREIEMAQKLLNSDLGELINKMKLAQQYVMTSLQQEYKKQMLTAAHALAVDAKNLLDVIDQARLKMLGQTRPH

OCI-Ly10 [4] = experiment: Induction of apoptosis in human OCILY10 cells harboring MYD88 L265P assessed as upregulation of caspase-3 cleavage at 0.2 uM in presence of BTK inhibitor, ibrutinib by immunoblotting analysis; type: functional, cell-based
OCI-Ly10 [5] = experiment: Induction of apoptosis in human OCILY10 cells harboring MYD88 L265P assessed as late apoptotic cells at 0.1 uM incubated for 48 hrs in presence of BTK inhibitor, ibrutinib by Annexin V-FITC/PI staining based flow cytometry (reference value: 6.59 %); type: functional
[6] = target: Vascular endothelial growth factor receptor 3 (Homo sapiens) (UniProt P35916); experiment: Inhibition of VEGFR3 (unknown origin) at 100 nM incubated for 1 hr in presence of ATP by ELISA analysis
OCI-Ly10 [7] = experiment: Induction of apoptosis in human OCILY10 cells assessed as late apoptotic cells at 0.1 uM incubated for 24 hrs by Annexin V-FITC/PI staining based flow cytometry (reference value: 3.71 %); type: functional
OCI-Ly10 [8] = experiment: Synergistic antiproliferative activity against human OCILY10 cells harboring MYD88 L265P assessed as inhibition of cell growth at 400 nM incubated for 72 hrs in presence of BTK inhibitor, ibrutinib at 1.6 nM by CCK-8 assay (reference value: 34.46 %); type: functional
OCI-Ly10 [9] = experiment: Induction of apoptosis in human OCILY10 cells harboring MYD88 L265P assessed as early apoptotic cells at 0.1 uM incubated for 48 hrs in presence of BTK inhibitor, ibrutinib by Annexin V-FITC/PI staining based flow cytometry (reference value: 6.76 %); type: functional
OCI-Ly10 [10] = experiment: Synergistic antiproliferative activity against human OCILY10 cells harboring MYD88 L265P assessed as inhibition of cell growth at 400 nM incubated for 72 hrs in presence of BTK inhibitor, ibrutinib at 25 nM by CCK-8 assay (reference value: 34.46 %); type: functional
[11] = target: Platelet-derived growth factor receptor alpha (Homo sapiens) (UniProt P16234); experiment: Inhibition of PDGFR-alpha (unknown origin) at 100 nM incubated for 1 hr in presence of ATP by ELISA analysis
Platelet-derived growth factor receptor alpha (Homo sapiens), sequence (P16234 whole entry): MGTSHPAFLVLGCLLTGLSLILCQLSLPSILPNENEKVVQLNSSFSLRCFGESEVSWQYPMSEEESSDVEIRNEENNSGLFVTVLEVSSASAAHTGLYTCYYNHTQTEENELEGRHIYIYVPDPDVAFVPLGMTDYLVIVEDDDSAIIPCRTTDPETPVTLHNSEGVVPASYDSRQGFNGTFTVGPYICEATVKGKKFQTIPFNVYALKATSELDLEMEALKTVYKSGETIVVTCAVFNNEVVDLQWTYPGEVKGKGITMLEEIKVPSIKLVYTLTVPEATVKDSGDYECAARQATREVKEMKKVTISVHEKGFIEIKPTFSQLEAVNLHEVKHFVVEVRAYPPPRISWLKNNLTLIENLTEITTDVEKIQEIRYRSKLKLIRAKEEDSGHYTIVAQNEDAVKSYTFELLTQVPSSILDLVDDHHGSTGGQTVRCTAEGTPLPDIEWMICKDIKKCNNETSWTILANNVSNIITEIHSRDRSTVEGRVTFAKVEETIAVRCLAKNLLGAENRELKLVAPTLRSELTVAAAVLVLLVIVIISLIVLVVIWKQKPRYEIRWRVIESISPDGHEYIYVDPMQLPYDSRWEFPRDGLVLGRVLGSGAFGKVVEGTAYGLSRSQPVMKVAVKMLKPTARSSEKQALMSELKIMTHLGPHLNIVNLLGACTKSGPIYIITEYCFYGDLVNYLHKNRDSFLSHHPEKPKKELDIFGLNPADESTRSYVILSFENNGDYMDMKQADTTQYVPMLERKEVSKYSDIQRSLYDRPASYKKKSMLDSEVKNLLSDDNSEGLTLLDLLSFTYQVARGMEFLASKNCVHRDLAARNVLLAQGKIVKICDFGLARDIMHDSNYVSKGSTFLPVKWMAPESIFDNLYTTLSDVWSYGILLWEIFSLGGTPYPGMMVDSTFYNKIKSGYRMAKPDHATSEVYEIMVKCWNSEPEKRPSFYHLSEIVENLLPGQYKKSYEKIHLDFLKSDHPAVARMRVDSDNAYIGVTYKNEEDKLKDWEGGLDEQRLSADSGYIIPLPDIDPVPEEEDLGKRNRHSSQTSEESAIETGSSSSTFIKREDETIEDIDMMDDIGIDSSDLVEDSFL

OCI-Ly10 [12] = experiment: Synergistic antiproliferative activity against human OCILY10 cells harboring MYD88 L265P assessed as inhibition of cell growth at 800 nM incubated for 72 hrs in presence of BTK inhibitor, ibrutinib at 6.2 nM by CCK-8 assay (reference value: 54.76 %); type: functional
OCI-Ly10 [13] = experiment: Synergistic antiproliferative activity against human OCILY10 cells harboring MYD88 L265P assessed as inhibition of cell growth at 800 nM incubated for 72 hrs in presence of BTK inhibitor, ibrutinib at 1.6 nM by CCK-8 assay (reference value: 54.76 %); type: functional
[14] = target: Fibroblast growth factor receptor 3 (Homo sapiens) (UniProt P22607); experiment: Inhibition of FGFR3 (unknown origin) at 100 nM incubated for 1 hr in presence of ATP by ELISA analysis
Fibroblast growth factor receptor 3 (Homo sapiens), sequence (P22607 23-806 limits assumed): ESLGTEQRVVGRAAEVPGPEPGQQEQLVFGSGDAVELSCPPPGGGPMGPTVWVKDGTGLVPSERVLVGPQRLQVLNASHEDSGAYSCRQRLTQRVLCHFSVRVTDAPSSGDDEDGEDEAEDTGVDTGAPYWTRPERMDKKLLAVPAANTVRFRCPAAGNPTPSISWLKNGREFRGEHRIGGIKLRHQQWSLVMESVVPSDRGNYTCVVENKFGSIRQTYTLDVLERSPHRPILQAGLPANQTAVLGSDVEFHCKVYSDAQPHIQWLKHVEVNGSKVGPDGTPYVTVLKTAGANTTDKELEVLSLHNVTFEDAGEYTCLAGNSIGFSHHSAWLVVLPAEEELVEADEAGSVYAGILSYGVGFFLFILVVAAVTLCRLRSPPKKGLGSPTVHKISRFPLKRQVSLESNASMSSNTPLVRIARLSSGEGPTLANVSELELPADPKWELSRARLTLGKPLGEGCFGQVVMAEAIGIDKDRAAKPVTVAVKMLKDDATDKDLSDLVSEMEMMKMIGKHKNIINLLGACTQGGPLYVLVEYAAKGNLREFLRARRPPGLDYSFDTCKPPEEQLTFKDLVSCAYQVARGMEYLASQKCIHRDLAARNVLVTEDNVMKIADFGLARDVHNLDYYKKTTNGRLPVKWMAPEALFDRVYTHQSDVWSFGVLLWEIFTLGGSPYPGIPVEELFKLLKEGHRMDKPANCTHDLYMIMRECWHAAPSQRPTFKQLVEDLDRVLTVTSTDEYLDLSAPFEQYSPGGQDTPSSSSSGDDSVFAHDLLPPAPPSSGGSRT

OCI-Ly10 [15] = experiment: Induction of apoptosis in human OCILY10 cells assessed as upregulation of PARP cleavage at 0.1 to 1 uM incubated for 48 hrs by immunoblotting analysis; type: functional, cell-based; settings: dose 0.1-1 µM
[16] = target: Insulin receptor (Homo sapiens) (UniProt P06213); experiment: Inhibition of IR (unknown origin) at 100 nM incubated for 1 hr in presence of ATP by ELISA analysis
[17] = Cytotoxicity against human GM00637 cells assessed as inhibition of cell proliferation incubated for 72 hrs by CCK-8 assay; type: toxicity, cell-based
OCI-Ly10 [18] = experiment: Induction of apoptosis in human OCILY10 cells harboring MYD88 L265P assessed as upregulation of caspase-3 cleavage at 0.1 uM in presence of BTK inhibitor, ibrutinib by immunoblotting analysis; type: functional, cell-based
OCI-Ly10 [19] = experiment: Induction of apoptosis in human OCILY10 cells assessed as upregulation of caspase-3 cleavage at 0.1 to 1 uM incubated for 48 hrs by immunoblotting analysis; type: functional, cell-based; settings: dose 0.1-1 µM
OCI-Ly10 [20] = experiment: Induction of apoptosis in human OCILY10 cells assessed as late apoptotic cells at 0.1 uM incubated for 48 hrs by Annexin V-FITC/PI staining based flow cytometry (reference value: 3.54 %); type: functional
[21] = target: Vascular endothelial growth factor receptor 2 (Homo sapiens) (UniProt P35968); experiment: Inhibition of VEGFR2 (unknown origin) at 100 nM incubated for 1 hr in presence of ATP by ELISA analysis
Vascular endothelial growth factor receptor 2 (Homo sapiens), sequence (P35968 whole entry): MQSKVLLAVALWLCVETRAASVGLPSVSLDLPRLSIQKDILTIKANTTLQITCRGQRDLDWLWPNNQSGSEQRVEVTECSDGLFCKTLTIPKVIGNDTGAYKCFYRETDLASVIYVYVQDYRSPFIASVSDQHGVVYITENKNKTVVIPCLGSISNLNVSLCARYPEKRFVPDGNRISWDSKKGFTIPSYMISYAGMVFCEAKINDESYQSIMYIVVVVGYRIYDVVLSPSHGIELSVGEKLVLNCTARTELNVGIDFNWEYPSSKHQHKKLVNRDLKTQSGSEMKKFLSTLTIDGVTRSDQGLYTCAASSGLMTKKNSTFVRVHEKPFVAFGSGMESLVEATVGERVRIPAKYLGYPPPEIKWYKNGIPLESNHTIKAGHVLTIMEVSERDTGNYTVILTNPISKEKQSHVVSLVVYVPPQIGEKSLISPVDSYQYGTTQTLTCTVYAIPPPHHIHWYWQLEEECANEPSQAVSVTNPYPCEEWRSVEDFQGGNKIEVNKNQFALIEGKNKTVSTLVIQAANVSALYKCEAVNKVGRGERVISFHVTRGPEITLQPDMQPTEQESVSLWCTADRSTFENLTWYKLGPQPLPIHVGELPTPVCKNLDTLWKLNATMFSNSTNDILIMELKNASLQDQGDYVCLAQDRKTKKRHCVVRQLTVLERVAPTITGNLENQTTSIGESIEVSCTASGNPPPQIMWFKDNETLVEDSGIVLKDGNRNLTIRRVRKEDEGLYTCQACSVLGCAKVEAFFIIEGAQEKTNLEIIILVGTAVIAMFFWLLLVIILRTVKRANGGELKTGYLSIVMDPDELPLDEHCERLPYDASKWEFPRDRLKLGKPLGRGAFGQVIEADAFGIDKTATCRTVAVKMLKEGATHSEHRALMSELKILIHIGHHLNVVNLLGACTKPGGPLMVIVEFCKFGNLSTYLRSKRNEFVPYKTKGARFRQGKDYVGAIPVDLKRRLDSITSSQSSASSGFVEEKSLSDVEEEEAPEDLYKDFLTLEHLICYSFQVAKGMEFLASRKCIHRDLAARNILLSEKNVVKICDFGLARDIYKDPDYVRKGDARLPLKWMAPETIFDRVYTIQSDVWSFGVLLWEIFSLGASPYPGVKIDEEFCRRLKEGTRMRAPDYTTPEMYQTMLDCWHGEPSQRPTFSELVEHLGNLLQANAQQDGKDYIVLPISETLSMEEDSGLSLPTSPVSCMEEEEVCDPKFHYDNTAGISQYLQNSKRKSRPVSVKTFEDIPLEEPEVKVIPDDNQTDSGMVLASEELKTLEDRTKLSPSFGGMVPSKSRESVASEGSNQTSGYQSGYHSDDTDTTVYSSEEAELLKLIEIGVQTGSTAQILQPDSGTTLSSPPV

OCI-Ly10 [22] = experiment: Induction of apoptosis in human OCILY10 cells assessed as late apoptotic cells at 1 uM incubated for 48 hrs by Annexin V-FITC/PI staining based flow cytometry (reference value: 3.54 %); type: functional
OCI-Ly10 [23] = experiment: Synergistic antiproliferative activity against human OCILY10 cells harboring MYD88 L265P assessed as inhibition of cell growth at 800 nM incubated for 72 hrs in presence of BTK inhibitor, ibrutinib at 25 nM by CCK-8 assay (reference value: 54.76 %); type: functional
OCI-Ly10 [24] = experiment: Synergistic antiproliferative activity against human OCILY10 cells harboring MYD88 L265P assessed as inhibition of cell growth at 800 nM incubated for 72 hrs in presence of BTK inhibitor, ibrutinib at 12.5 nM by CCK-8 assay (reference value: 54.76 %); type: functional
[25] = target: Fibroblast growth factor receptor 1 (Homo sapiens) (UniProt P11362); experiment: Inhibition of FGFR1 (unknown origin) at 100 nM incubated for 1 hr in presence of ATP by ELISA analysis
OCI-Ly10 [26] = experiment: Induction of apoptosis in human OCILY10 cells harboring MYD88 L265P assessed as early apoptotic cells at 0.2 uM incubated for 48 hrs in presence of BTK inhibitor, ibrutinib by Annexin V-FITC/PI staining based flow cytometry (reference value: 6.76 %); type: functional
OCI-Ly10 [27] = experiment: Induction of apoptosis in human OCILY10 cells assessed as upregulation of caspase-3 cleavage at 0.1 to 1 uM incubated for 24 hrs by immunoblotting analysis; type: functional, cell-based; settings: dose 0.1-1 µM
OCI-Ly10 [28] = experiment: Induction of apoptosis in human OCILY10 cells assessed as upregulation of PARP cleavage at 0.1 to 1 uM incubated for 24 hrs by immunoblotting analysis; type: functional, cell-based; settings: dose 0.1-1 µM
OCI-Ly10 [29] = experiment: Synergistic antiproliferative activity against human OCILY10 cells harboring MYD88 L265P assessed as inhibition of cell growth at 800 nM incubated for 72 hrs in presence of BTK inhibitor, ibrutinib at 3.1 nM by CCK-8 assay (reference value: 54.76 %); type: functional

Cn1cc(-c2cc3c(cc2NC(=O)c2coc(-c4ccnc(N)c4)n2)CC(C)(C)O3)cn1
inhibition at 0.2 µM (OCI-Ly10 [1]): 75.4% | inhibition [2]: inactive | inhibition [3]: inactive | Activity (OCI-Ly10 [4]): Active | Activity (OCI-Ly10 [5]): 22% | inhibition [6]: inactive | Activity (OCI-Ly10 [7]): 7.94% | inhibition at 0.4 µM (OCI-Ly10 [8]): 37.4% | Activity (OCI-Ly10 [9]): 14.2% | inhibition at 0.4 µM (OCI-Ly10 [10]): 83.2% | inhibition [11]: inactive | inhibition at 0.8 µM (OCI-Ly10 [12]): 83.3% | inhibition at 0.8 µM (OCI-Ly10 [13]): 58.1% | inhibition [14]: inactive | Activity (OCI-Ly10 [15]): Active | inhibition [16]: inactive | IC50 at 72 h [17]: 1520 nM | Activity (OCI-Ly10 [18]): Active | Activity (OCI-Ly10 [19]): Active | Activity (OCI-Ly10 [20]): 7.93% | inhibition [21]: inactive | Activity (OCI-Ly10 [22]): 37.7% | inhibition at 0.8 µM (OCI-Ly10 [23]): 88.4% | inhibition at 0.8 µM (OCI-Ly10 [24]): 86.4% | inhibition [25]: inactive | Activity (OCI-Ly10 [26]): 19.6% | Activity (OCI-Ly10 [27]): Active | Activity (OCI-Ly10 [28]): Active | inhibition at 0.8 µM (OCI-Ly10 [29]): 64.6%
